Experimental data as given in ChEMBL document CHEMBL1156996 (Bioorg Med Chem Lett, 2010).

How the values were obtained:
[1] = inhibition of Cryptococcus neoformans recombinant Can2 after 15 mins by stopped-flow CO2 hydration assay
Carbonic anhydrase = target: T1, Carbonic anhydrase (Candida albicans (strain SC5314 / ATCC MYA-2876) (Yeast), UniProt Q5AJ71); assay: inhibition of Candida albicans recombinant Nce103 after 15 mins by stopped-flow CO2 hydration assay
T1 sequence (Q5AJ71 whole entry): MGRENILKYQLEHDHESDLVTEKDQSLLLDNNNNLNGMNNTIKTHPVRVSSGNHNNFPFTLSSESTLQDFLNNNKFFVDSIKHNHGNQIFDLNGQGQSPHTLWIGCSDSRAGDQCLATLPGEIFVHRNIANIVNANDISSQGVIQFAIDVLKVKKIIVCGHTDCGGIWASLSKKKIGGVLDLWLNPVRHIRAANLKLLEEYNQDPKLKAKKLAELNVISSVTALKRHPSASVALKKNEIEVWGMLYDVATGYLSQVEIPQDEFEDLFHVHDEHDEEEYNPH

[2] = Selectivity ratio of IC50 for human CA2 to IC50 for Cryptococcus neoformans Can2
[3] = Selectivity ratio of IC50 for human CA1 to IC50 for Cryptococcus neoformans Can2
[4] = target: T2, Carbonic anhydrase (Candida albicans (strain SC5314 / ATCC MYA-2876) (Yeast)) (UniProt Q5AJ71); assay: Ratio of compound to acetazolamide activity for inhibition of Candida albicans recombinant Nce103
T2 sequence (whole entry): T1 sequence (Q5AJ71 whole entry)

Ratio [4] | Compound | Ki [1] [nM] | Ki (Carbonic anhydrase) [nM] | Ratio IC50 [2] | Ratio IC50 [3]
– | Cc1cc(C)[n+](NC(=O)c2[nH]c3ccc(S(N)(=O)=O)cc3c2-c2ccc(Cl)cc2)c(C)c1.[O-][Cl+3]([O-])([O-])[O-] | 3.1 | 29 | – | –
– | COc1cccc(-c2c(C(=O)N[n+]3c(C)cc(C)cc3C)[nH]c3ccc(S(N)(=O)=O)cc23)c1.[O-][Cl+3]([O-])([O-])[O-] | 8.3 | 119 | – | –
– | Cc1cc(C)[n+](NC(=O)c2[nH]c3ccc(S(N)(=O)=O)cc3c2-c2ccccc2)c(C)c1.[O-][Cl+3]([O-])([O-])[O-] | 16.5 | 42 | – | –
– | COc1cccc(-c2c(C(=O)NN)[nH]c3ccc(S(N)(=O)=O)cc23)c1 | 12 | 128 | – | –
– | NNC(=O)c1[nH]c2ccc(S(N)(=O)=O)cc2c1-c1ccc(Br)cc1 | 118 | 94 | – | –
– | NNC(=O)c1[nH]c2ccc(S(N)(=O)=O)cc2c1-c1ccccc1F | 7.9 | 47 | – | –
– | Cc1cc(C)[n+](NC(=O)c2[nH]c3ccc(S(N)(=O)=O)cc3c2-c2ccccc2F)c(C)c1.[O-][Cl+3]([O-])([O-])[O-] | 16.2 | 19 | – | –
– | NNC(=O)c1[nH]c2ccc(S(N)(=O)=O)cc2c1-c1ccc(Cl)cc1 | 70 | 55 | – | –
– | Cc1cc(C)[n+](NC(=O)c2[nH]c3ccc(S(N)(=O)=O)cc3c2-c2ccccc2Br)c(C)c1.[O-][Cl+3]([O-])([O-])[O-] | 12.1 | 45 | – | –
– | NNC(=O)c1[nH]c2ccc(S(N)(=O)=O)cc2c1-c1cccc(Cl)c1 | 7.4 | 52 | – | –
– | Cc1cc(C)[n+](NC(=O)c2[nH]c3ccc(S(N)(=O)=O)cc3c2-c2ccccc2Cl)c(C)c1.[O-][Cl+3]([O-])([O-])[O-] | 15.4 | 33 | – | –
– | Cc1cc(C)[n+](NC(=O)c2[nH]c3ccc(S(N)(=O)=O)cc3c2-c2cccc(F)c2)c(C)c1.[O-][Cl+3]([O-])([O-])[O-] | 8.3 | 24 | – | –
– | NNC(=O)c1[nH]c2ccc(S(N)(=O)=O)cc2c1-c1ccc(F)cc1 | 8.6 | 61 | – | –
– | NNC(=O)c1[nH]c2ccc(S(N)(=O)=O)cc2c1-c1cccc(Br)c1 | 93 | 87 | – | –
– | Cc1cc(C)[n+](NC(=O)c2[nH]c3ccc(S(N)(=O)=O)cc3c2-c2c(F)c(F)c(F)c(F)c2F)c(C)c1.[O-][Cl+3]([O-])([O-])[O-] | 60.1 | 5.1 | – | –
– | Cc1cc(C)[n+](NC(=O)c2[nH]c3ccc(S(N)(=O)=O)cc3c2-c2ccccc2C)c(C)c1.[O-][Cl+3]([O-])([O-])[O-] | 6.5 | 62 | – | –
– | NNC(=O)c1[nH]c2ccc(S(N)(=O)=O)cc2c1-c1ccccc1Cl | 8 | 45 | 4.8 | 80
– | NNC(=O)c1[nH]c2ccc(S(N)(=O)=O)cc2c1-c1ccccc1Br | 62 | 81 | – | –
– | NNC(=O)c1[nH]c2ccc(S(N)(=O)=O)cc2c1-c1ccccc1 | 72 | 85 | – | –
– | Cc1ccccc1-c1c(C(=O)NN)[nH]c2ccc(S(N)(=O)=O)cc12 | 9.2 | 78 | – | –
17.6 | NNC(=O)c1[nH]c2ccc(S(N)(=O)=O)cc2c1-c1c(F)c(F)c(F)c(F)c1F | 103 | – | – | –
– | Cc1cc(C)[n+](NC(=O)c2[nH]c3ccc(S(N)(=O)=O)cc3c2-c2ccc(Br)cc2)c(C)c1.[O-][Cl+3]([O-])([O-])[O-] | 10.9 | 53 | – | –
– | Cc1cccc(-c2c(C(=O)N[n+]3c(C)cc(C)cc3C)[nH]c3ccc(S(N)(=O)=O)cc23)c1.[O-][Cl+3]([O-])([O-])[O-] | 6.1 | 64 | – | –
– | Cc1cc(C)[n+](NC(=O)c2[nH]c3ccc(S(N)(=O)=O)cc3c2-c2cccc(Cl)c2)c(C)c1.[O-][Cl+3]([O-])([O-])[O-] | 4.4 | 31 | – | –
– | Cc1ccc(-c2c(C(=O)NN)[nH]c3ccc(S(N)(=O)=O)cc23)cc1 | 10.5 | 52 | – | –
– | Cc1cc(C)[n+](NC(=O)c2[nH]c3ccc(S(N)(=O)=O)cc3c2-c2cccc(Br)c2)c(C)c1.[O-][Cl+3]([O-])([O-])[O-] | 14.3 | 48 | – | –
– | Cc1ccc(-c2c(C(=O)N[n+]3c(C)cc(C)cc3C)[nH]c3ccc(S(N)(=O)=O)cc23)cc1.[O-][Cl+3]([O-])([O-])[O-] | 5.9 | 41 | – | –
– | Cc1cc(C)[n+](NC(=O)c2[nH]c3ccc(S(N)(=O)=O)cc3c2-c2ccc(F)cc2)c(C)c1.[O-][Cl+3]([O-])([O-])[O-] | 8.7 | 21 | – | –
– | NNC(=O)c1[nH]c2ccc(S(N)(=O)=O)cc2c1-c1cccc(F)c1 | 7.2 | 54 | – | –
– | Cc1cccc(-c2c(C(=O)NN)[nH]c3ccc(S(N)(=O)=O)cc23)c1 | 9.1 | 43 | 5.1 | 80.2
